These are literature values, as cited in patent US20240197806A1, “EBELIN LACTONE OR BACOGENIN A1 ENRICHED COMPOSITION AND METHOD OF PREPARATION THEREOF” (priority 2022, published 2024).

For series [1] the following is noted: Ramasamy et al., PLoS One 2015.
For series [2] the following is noted: Ramasamy et al., PLoS One 2015. The source holds these as a separate data set.
Series [3] has as its target 5-HT2A receptors (Homo sapiens, UniProt P28223). As to conditions: read-out: Ki, binding to the 5-HT2A receptors.

Chain of 5-HT2A receptors (P28223 whole entry): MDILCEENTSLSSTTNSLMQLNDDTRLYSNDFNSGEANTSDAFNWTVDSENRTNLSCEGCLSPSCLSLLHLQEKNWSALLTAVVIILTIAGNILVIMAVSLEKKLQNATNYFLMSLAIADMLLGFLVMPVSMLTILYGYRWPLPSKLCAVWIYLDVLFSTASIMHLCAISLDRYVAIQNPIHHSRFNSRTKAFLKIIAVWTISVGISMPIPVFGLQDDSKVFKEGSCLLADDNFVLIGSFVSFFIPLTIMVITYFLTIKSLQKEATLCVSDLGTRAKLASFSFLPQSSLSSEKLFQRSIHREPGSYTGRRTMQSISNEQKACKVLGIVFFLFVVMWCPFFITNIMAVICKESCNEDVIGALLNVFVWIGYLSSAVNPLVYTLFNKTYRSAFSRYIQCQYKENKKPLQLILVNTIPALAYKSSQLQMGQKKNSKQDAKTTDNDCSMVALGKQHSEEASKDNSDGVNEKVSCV

Consider `CC1=CC(C)(C)O[C@@]1(C)C1C(=O)C[C@]2(CO)C1CCC1[C@@]3(C)CC[C@H](O)C(C)(C)C3CC[C@]12C` (stereo partly drawn) [bacogenin A1], for which the intestinal absorption entry in series [1] is “same absorption parameters as jujubogenin and pseudojujubogenin”.

For the molecule `CC(C)=C[C@@H]1CO[C@]23C[C@]4(CO2)[C@H](CC[C@@H]2[C@@]5(C)CC[C@H](O[C@@H]6OC[C@H](O)[C@H](O[C@@H]7O[C@H](CO)[C@@H](O)[C@H](O)[C@H]7O)[C@H]6O[C@@H]6O[C@@H](CO)[C@H](O)[C@H]6O)C(C)(C)[C@@H]5CC[C@]24C)[C@H]3[C@@]1(C)O` [bacopasaponin C], the intestinal absorption entry in series [1] is recorded as “poor”. In addition, the “ability to cross the blood brain barrier / blood brain barrier penetration” value in series [2] is on record as “not able to cross”.

For the molecule `CC(C)=C[C@H]1C[C@](C)(O)[C@@H]2[C@H]3CC[C@@H]4[C@@]5(C)CC[C@H](O[C@@H]6OC[C@H](O)[C@H](O[C@@H]7O[C@H](CO)[C@@H](O)[C@H](O)[C@H]7O)[C@H]6O[C@@H]6O[C@@H](CO)[C@H](O)[C@H]6O)C(C)(C)[C@@H]5CC[C@@]4(C)[C@@]34CO[C@@]2(C4)O1` [bacopaside X], the intestinal absorption result in series [1] is “poor”. The “ability to cross the blood brain barrier / blood brain barrier penetration” value in series [2] is recorded as “not able to cross”.

For the molecule `CC(C)=C[C@H]1C[C@](C)(O)[C@H]2[C@H]3CC[C@@H]4[C@@]5(C)CC[C@H](O[C@@H]6O[C@H](CO)[C@@H](O)[C@H](O[C@@H]7O[C@H](CO)[C@@H](O)[C@H](O)[C@H]7O)[C@H]6O[C@@H]6O[C@@H](CO)[C@H](O)[C@H]6O)C(C)(C)[C@@H]5CC[C@@]4(C)[C@@]34CO[C@@]2(C4)O1` [bacoside A3], the intestinal absorption result in series [1] is on record as “poor”. Further, the “ability to cross the blood brain barrier / blood brain barrier penetration” value in series [2] is listed as “not able to cross”.

Turning to `CC(C)=C/C=C/C(C)=C/C1CCC2[C@@]3(C)CC[C@H](O)C(C)(C)C3CC[C@@]2(C)[C@@]12COC(=O)C2` (stereo partly drawn) [ebelin lactone], the Ki in series [3] is 4.21 µM. The “ability to cross the blood brain barrier / blood brain barrier penetration” value in series [2] is on record as “very high”.

With `CC(C)=CC1C[C@](C)(O)C2C3CCC4[C@@]5(C)CC[C@H](O)C(C)(C)C5CC[C@@]4(C)[C@]34CO[C@]2(C4)O1` (stereo partly drawn) [jujubogenin], in series [1], the intestinal absorption entry is recorded as “good”. In series [2], the “ability to cross the blood brain barrier / blood brain barrier penetration” value is “able to cross”.

Consider `CC(C)=CC1COC23CC4(CO2)C(CCC2C5(C)CCC(O)C(C)(C)C5CCC24C)C3C1(C)O` (stereo not drawn) [pseudojujubogenin], for which the intestinal absorption entry in series [1] is on record as “good”. For the same molecule, in series [2], the “ability to cross the blood brain barrier / blood brain barrier penetration” value is given as “able to cross”.

As to bacopaside II, the intestinal absorption result in series [1] was “poor”. For the same molecule, the “ability to cross the blood brain barrier / blood brain barrier penetration” value in series [2] is “not able to cross”.

The term Ki denotes the equilibrium dissociation constant of an inhibitor or competing ligand from its target.
